The source of these data is patent publication US12448377B2, “Heterocyclic compound” (Takeda Pharmaceutical Company Limited, priority 2019, dated 2025).

This assay has as its target T1, human orexin type 2 receptor (Homo sapiens, UniProt O43614).
T1 construct: expressed in transfected cells
T1 sequence (O43614 1-444): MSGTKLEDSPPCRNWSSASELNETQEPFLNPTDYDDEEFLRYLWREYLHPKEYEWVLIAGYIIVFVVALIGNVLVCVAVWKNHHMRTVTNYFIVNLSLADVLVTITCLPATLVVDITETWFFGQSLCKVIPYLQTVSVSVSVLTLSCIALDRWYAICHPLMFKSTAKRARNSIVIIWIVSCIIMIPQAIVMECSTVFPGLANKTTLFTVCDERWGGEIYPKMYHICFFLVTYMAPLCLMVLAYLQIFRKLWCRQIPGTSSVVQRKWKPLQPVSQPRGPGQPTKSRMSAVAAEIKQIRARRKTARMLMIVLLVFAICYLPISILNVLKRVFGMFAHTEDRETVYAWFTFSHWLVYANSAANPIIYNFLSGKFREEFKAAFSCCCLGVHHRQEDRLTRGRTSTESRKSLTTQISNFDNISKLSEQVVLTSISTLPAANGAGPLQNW
In words: Measurement of orexin type 2 receptor agonist activity (calcium fluorescence, CHO cells forcibly expressing human OX2 receptor). In kind it is cell-based. The settings on record: compound at 3 μM, DMSO = 0%, orexin A (human) 10 nM = 100%. An excerpt:
To obtain a cell clone stably expressing human orexin type 2 receptor, human orexin type 2 receptor cDNA was inserted into pcDNA3.1(+) plasmid vector (Invitrogen), and a plasmid DNA for expression of human orexin type 2 receptor (pcDNA3.1(+)/hOX2R) was cloned. The plasmid DNA was introduced into CHO-K1 cell by an electroporation method, and human orexin type 2 receptor-expressing clonal cells were obtained by limiting dilution method using G418 drug resistance as a selection marker.
CHO cells forcibly expressing human OX2 receptor were seeded in each well of 384 well black transparent bottom plate (BD Falcon) at 10,000 cells/well, and cultured for one day in a 5% CO2 incubator at 37° C. After removal of the medium in the cell plate, assay buffer A containing a calcium indicator (HBSS (Thermo Fisher Scientific), 20 mM HEPES (Thermo Fisher Scientific), 0.1% BSA (Sigma-Aldrich), 2.5 μg/mL Fluo-4 AM (DOJINDO Chemical), 0.08% Pluronic F127 (DOJINDO Chemical), 1.25 mM probenecid (DOJINDO Chemical)) was added thereto at 30 μL/well. The plate was stood for 30 min in a 5% CO2 incubator at 37° C., and further stood at room temperature for 30 min. A test compound prepared by diluting with assay buffer B (HBSS, 20 mM HEPES, 0.1% BSA) was added thereto at 10 μL/well, and the fluorescence value was measured by FDSSμCELL (Hamamatsu Photonics K.K.) every one sec for 1 min, and thereafter every two sec for 1 min 40 sec. The activity (%) of the test compound was calculated assuming that variation in the fluorescence value when DMSO was added instead of the test compound was 0%, and variation in the fluorescence value when orexin A (human) (PEPTIDE INSTITUTE, INC.) was added at the final concentration of 10 nM was 100%.

`CCc1ccc2n(c1=O)C(COC1CCC(C)CC1)C(NS(C)(=O)=O)CC2` (racemic) [Example 2, rac-N-[(3S,4R)-7-ethyl-4-({[(1s,4S)-4-methylcyclohexyl]oxy}methyl)-6-oxo-1,3,4,6-tetrahydro-2H-quinolizin-3-yl]methanesulfonamide]: the “OX2R agonist activity (3 μM, %)” value was 94%.
For the molecule `CC1CCC(OCC2C(NS(C)(=O)=O)CCc3cccc(=O)n32)CC1` (racemic) [Example 3, rac-N-[(3S,4R)-4-({[(1s,4S)-4-methylcyclohexyl]oxy}methyl)-6-oxo-1,3,4,6-tetrahydro-2H-quinolizin-3-yl]methanesulfonamide], the “OX2R agonist activity (3 μM, %)” value was determined as 89%.
With `COC1CCC(OCC2C(NS(C)(=O)=O)CCc3ccc(C)c(=O)n32)CC1` (racemic) [Example 4, N-[(3SR,4RS)-4-{[(4-methoxycyclohexyl)oxy]methyl}-7-methyl-6-oxo-1,3,4,6-tetrahydro-2H-quinolizin-3-yl]methanesulfonamide], the “OX2R agonist activity (3 μM, %)” value is given as 58%.
With `CCS(=O)(=O)NC1CCc2ccc(C)c(=O)n2C1COC1CCC(C)CC1` (racemic) [Example 7, rac-N-[(3S,4R)-7-methyl-4-({[(1s,4S)-4-methylcyclohexyl]oxy}methyl)-6-oxo-1,3,4,6-tetrahydro-2H-quinolizin-3-yl]ethanesulfonamide], the “OX2R agonist activity (3 μM, %)” value was determined as 85%.
The value for `Cc1ccc2n(c1=O)C(COC1CCC(C)CC1)C(NS(=O)(=O)C1CC1)CC2` (racemic) [Example 8, rac-N-[(3S,4R)-7-methyl-4-({[(1s,4S)-4-methylcyclohexyl]oxy}methyl)-6-oxo-1,3,4,6-tetrahydro-2H-quinolizin-3-yl]cyclopropanesulfonamide] was 80%.
The value for `CCC1CCC(OCC2C(NS(=O)(=O)C3CC3)CCc3ccc(C)c(=O)n32)CC1` (racemic) [Example 10, rac-N-[(3S,4R)-4-({[(1s,4S)-4-ethylcyclohexyl]oxy}methyl)-7-methyl-6-oxo-1,3,4,6-tetrahydro-2H-quinolizin-3-yl]cyclopropanesulfonamide] was 97%; that for `CCC1CCC(OCC2C(NS(=O)(=O)CC)CCc3ccc(C)c(=O)n32)CC1` (racemic) [Example 11, rac-N-[(3S,4R)-4-({[(1s,4S)-4-ethylcyclohexyl]oxy}methyl)-7-methyl-6-oxo-1,3,4,6-tetrahydro-2H-quinolizin-3-yl]ethanesulfonamide] was 100%.
The value for `Cc1ccc2n(c1=O)C(COC1CCC(C(C)C)CC1)C(NS(C)(=O)=O)CC2` (racemic) [Example 12, rac-N-[(3S,4R)-7-methyl-6-oxo-4-({[(1s,4S)-4-(propan-2-yl)cyclohexyl]oxy}methyl)-1,3,4,6-tetrahydro-2H-quinolizin-3-yl] methanesulfonamide] was 96%; that for `CCS(=O)(=O)NC1CCc2ccc(C)c(=O)n2C1COC1CCC(C(C)C)CC1` (racemic) [Example 13, rac-N-[(3S,4R)-7-methyl-6-oxo-4-({[(1s,4S)-4-(propan-2-yl)cyclohexyl]oxy}methyl)-1,3,4,6-tetrahydro-2H-quinolizin-3-yl]ethanesulfonamide] was 96%; that for `Cc1ccc2n(c1=O)C(COC1CCC(C(C)C)CC1)C(NS(=O)(=O)C1CC1)CC2` (racemic) [Example 14, rac-N-[(3S,4R)-7-methyl-6-oxo-4-({[(1s,4S)-4-(propan-2-yl)cyclohexyl]oxy}methyl)-1,3,4,6-tetrahydro-2H-quinolizin-3-yl]cyclopropanesulfonamide] was 100%.
On to `CCS(=O)(=O)NC1CCc2ccc(C)c(=O)n2C1COC1CCC(c2ccccc2)CC1` (racemic) [Example 15, rac-N-[(3S,4R)-7-methyl-6-oxo-4-({[(1s,4S)-4-phenylcyclohexyl]oxy}methyl)-1,3,4,6-tetrahydro-2H-quinolizin-3-yl]ethanesulfonamide], for which the “OX2R agonist activity (3 μM, %)” value was 96%.
Turning to `Cc1ccc2n(c1=O)C(COC1CCC(c3ccccc3)CC1)C(NS(=O)(=O)C1CC1)CC2` (racemic) [Example 16, rac-N-[(3S,4R)-7-methyl-6-oxo-4-({[(1s,4S)-4-phenylcyclohexyl]oxy}methyl)-1,3,4,6-tetrahydro-2H-quinolizin-3-yl]cyclopropanesulfonamide], the “OX2R agonist activity (3 μM, %)” value is recorded as 91%.
Turning to `Cc1ccc2n(c1=O)C(COC1CCC(C(C)(C)C)CC1)C(NS(C)(=O)=O)CC2` (racemic) [Example 17, rac-N-[(3S,4R)-4-({[(1s,4S)-4-tert-butylcyclohexyl]oxy}methyl)-7-methyl-6-oxo-1,3,4,6-tetrahydro-2H-quinolizin-3-yl]methanesulfonamide], the “OX2R agonist activity (3 μM, %)” value was determined as 86%.
With `CCS(=O)(=O)NC1CCc2ccc(C)c(=O)n2C1COC1CCC(C(C)(C)C)CC1` (racemic) [Example 18, rac-N-[(3S,4R)-4-({[(1s,4S)-4-tert-butylcyclohexyl]oxy}methyl)-7-methyl-6-oxo-1,3,4,6-tetrahydro-2H-quinolizin-3-yl]ethanesulfonamide], the “OX2R agonist activity (3 μM, %)” value is recorded as 96%.
The value for `Cc1ccccc1C1CCC(OCC2C(NS(C)(=O)=O)CCc3ccc(C)c(=O)n32)CC1` (racemic) [Example 19, rac-N-[(3S,4R)-7-methyl-4-({[(1s,4S)-4-(2-methylphenyl)cyclohexyl]oxy}methyl)-6-oxo-1,3,4,6-tetrahydro-2H-quinolizin-3-yl]methanesulfonamide] was 89%.
The value for `Cc1ccccc1C1CCC(OCC2C(NS(=O)(=O)C3CC3)CCc3ccc(C)c(=O)n32)CC1` (racemic) [Example 20, rac-N-[(3S,4R)-7-methyl-4-({[(1s,4S)-4-(2-methylphenyl)cyclohexyl]oxy}methyl)-6-oxo-1,3,4,6-tetrahydro-2H-quinolizin-3-yl]cyclopropanesulfonamide] was 97%.
The value for `Cc1cccc(C2CCC(OCC3C(NS(C)(=O)=O)CCc4ccc(C)c(=O)n43)CC2)c1` (racemic) [Example 21, rac-N-[(3S,4R)-7-methyl-4-({[(1s,4S)-4-(3-methylphenyl)cyclohexyl]oxy}methyl)-6-oxo-1,3,4,6-tetrahydro-2H-quinolizin-3-yl]methanesulfonamide] was 92%.
Turning to `CCS(=O)(=O)NC1CCc2ccc(C)c(=O)n2C1COC1CCC(c2cccc(C)c2)CC1` (racemic) [Example 22, rac-N-[(3S,4R)-7-methyl-4-({[(1s,4S)-4-(3-methylphenyl)cyclohexyl]oxy}methyl)-6-oxo-1,3,4,6-tetrahydro-2H-quinolizin-3-yl]ethanesulfonamide], the “OX2R agonist activity (3 μM, %)” value is reported as 83%.
For `CCS(=O)(=O)NC1CCc2ccc(C)c(=O)n2C1COC1CCC(c2ccccc2C)CC1` (racemic) [Example 23, rac-N-[(3S,4R)-7-methyl-4-({[(1s,4S)-4-(2-methylphenyl)cyclohexyl]oxy}methyl)-6-oxo-1,3,4,6-tetrahydro-2H-quinolizin-3-yl]ethanesulfonamide], the “OX2R agonist activity (3 μM, %)” value is 96%.
As to `Cc1ccc2n(c1=O)C(COC1CCC(C(C)(C)C)CC1)C(NS(=O)(=O)C1CC1)CC2` (racemic) [Example 24, rac-N-[(3S,4R)-4-({[(1s,4S)-4-tert-butylcyclohexyl]oxy}methyl)-7-methyl-6-oxo-1,3,4,6-tetrahydro-2H-quinolizin-3-yl]cyclopropanesulfonamide], the “OX2R agonist activity (3 μM, %)” value is on record as 86%.
The value for `Cc1cccc(C2CCC(OCC3C(NS(=O)(=O)C4CC4)CCc4ccc(C)c(=O)n43)CC2)c1` (racemic) [Example 25, rac-N-[(3S,4R)-7-methyl-4-({[(1s,4S)-4-(3-methylphenyl)cyclohexyl]oxy}methyl)-6-oxo-1,3,4,6-tetrahydro-2H-quinolizin-3-yl]cyclopropanesulfonamide] was 92%; that for `Cc1ccc2n(c1=O)C(COC1CCC(C)CC1)C(NS(=O)(=O)N(C)C)CC2` (racemic) [Example 26, rac-N,N-dimethyl-N′-[(3S,4R)-7-methyl-4-({[(1s,4S)-4-methylcyclohexyl]oxy}methyl)-6-oxo-1,3,4,6-tetrahydro-2H-quinolizin-3-yl]sulfuric diamide] was 86%.
